{
  "source": "patent US11919965B2",
  "about": "“Methods of treating multiple myeloma with bispecific anti-BCMA x anti-CD3 antibodies” (Regeneron Pharmaceuticals, Inc., priority 2019, dated 2024)",
  "key": {"MC38/BCMA tumors": {"tested_on": "MC38/BCMA tumors", "assay": "Syngenic tumor model in CD3-humanized mice (Example 16)", "type": "in vivo, mouse", "protocol": "(§1) To determine the in vivo efficacy of anti-BCMA×anti-CD3 bispecific antibodies (Abs), a syngenic tumor study was performed in mice expressing human CD3. C57BL/6 mice that express human CD3deg in place of murine CD3deg (CD3-humanized mice) were subcutaneously implanted with either 0.5×10^6 B16 melanoma cells that have been engineered to express full-length human BCMA (B16/BCMA cells) or 1×10^6 MC38 colon carcinoma cells that have been engineered to express full-length human BCMA (MC38/BCMA). […] The mice were administered these Abs twice more on days 4 and 7 for a total of three doses, and tumor growth was assessed throughout the experiment.\n(§2) Implantation and measurement of syngenic tumors: C57BL/6 mice that express human CD3deg in place of murine CD3deg (CD3-humanized mice) were subcutaneously implanted with either 0.5×10^6 B16F10 melanoma cells that have been engineered to express full-length human BCMA (B16/BCMA cells) or 1×10^6 MC38 colon carcinoma cells that have been engineered to express full-length human BCMA (MC38/BCMA). […] The mice were administered these Abs twice more on days 4 and 7 for a total of three doses, and tumor growth was assessed throughout the experiment.\n(§3) Calculation of syngenic tumor growth and inhibition: In order to determine tumor volume by external caliper, the greatest longitudinal diameter (length in mm) and the greatest transverse diameter (width in mm) were determined. Tumor volumes based on caliper measurements were calculated by the formula: Volume (mm^3)=(length×width^2)/2."}, "B16/BCMA tumors": {"tested_on": "B16/BCMA tumors", "assay": "Syngenic tumor model in CD3-humanized mice (Example 16)", "type": "in vivo, mouse", "protocol": "as §1, §2, §3"}},
  "data": [
    {"substance": "REGN5458: anti-BCMA×anti-CD3 bispecific antibody: mAb21581 BCMA heavy chain, mAb7221G CD3 heavy chain and common light chain; SEQ ID NOs 126, 127, 129", "values": [
      {"measurement": "tumor growth", "setting": "MC38/BCMA tumors; 0.4 or 0.04 mg/kg", "value": "suppress the growth of both tumor lines in a dose-dependent manner"},
      {"measurement": "Average Tumor Size (mm3) ± SEM on Day 5", "setting": "MC38/BCMA tumors; MC38/BCMA Tumor, 0.04 mg/kg", "value": "11.9 ± 2.9", "unit": "mm3"},
      {"measurement": "Average Tumor Size (mm3) ± SEM on Day 10", "setting": "MC38/BCMA tumors; MC38/BCMA Tumor, 0.04 mg/kg", "value": "66.7 ± 22.5", "unit": "mm3"},
      {"measurement": "Average Tumor Size (mm3) ± SEM on Day 14", "setting": "MC38/BCMA tumors; MC38/BCMA Tumor, 0.04 mg/kg", "value": "273.3 ± 115.3", "unit": "mm3"},
      {"measurement": "Average Tumor Size (mm3) ± SEM on Day 18", "setting": "MC38/BCMA tumors; MC38/BCMA Tumor, 0.04 mg/kg", "value": "641.5 ± 309.8", "unit": "mm3"},
      {"measurement": "Average Tumor Size (mm3) ± SEM on Day 10", "setting": "MC38/BCMA tumors; MC38/BCMA Tumor, 0.4 mg/kg", "value": "0.0 ± 0.0", "unit": "mm3"},
      {"measurement": "Average Tumor Size (mm3) ± SEM on Day 14", "setting": "MC38/BCMA tumors; MC38/BCMA Tumor, 0.4 mg/kg", "value": "2.9 ± 2.9", "unit": "mm3"},
      {"measurement": "Average Tumor Size (mm3) ± SEM on Day 18", "setting": "MC38/BCMA tumors; MC38/BCMA Tumor, 0.4 mg/kg", "value": "7.5 ± 7.5", "unit": "mm3"},
      {"measurement": "tumor growth", "setting": "B16/BCMA tumors; 0.4 or 0.04 mg/kg", "value": "suppress the growth of both tumor lines in a dose-dependent manner"},
      {"measurement": "Average Tumor Size (mm3) ± SEM on Day 5", "setting": "B16/BCMA tumors; B16/BCMA Tumor, 0.04 mg/kg", "value": "3.3 ± 2.2", "unit": "mm3"},
      {"measurement": "Average Tumor Size (mm3) ± SEM on Day 10", "setting": "B16/BCMA tumors; B16/BCMA Tumor, 0.04 mg/kg", "value": "15.4 ± 12.5", "unit": "mm3"},
      {"measurement": "Average Tumor Size (mm3) ± SEM on Day 14", "setting": "B16/BCMA tumors; B16/BCMA Tumor, 0.04 mg/kg", "value": "81.4 ± 49.2", "unit": "mm3"},
      {"measurement": "Average Tumor Size (mm3) ± SEM on Day 5", "setting": "B16/BCMA tumors; B16/BCMA Tumor, 0.4 mg/kg", "value": "0.0 ± 0.0", "unit": "mm3"},
      {"measurement": "Average Tumor Size (mm3) ± SEM on Day 10", "setting": "B16/BCMA tumors; B16/BCMA Tumor, 0.4 mg/kg", "value": "0.0 ± 0.0", "unit": "mm3"},
      {"measurement": "Average Tumor Size (mm3) ± SEM on Day 14", "setting": "B16/BCMA tumors; B16/BCMA Tumor, 0.4 mg/kg", "value": "8.1 ± 4.4", "unit": "mm3"},
      {"measurement": "Average Tumor Size (mm3) ± SEM on Day 18", "setting": "B16/BCMA tumors; B16/BCMA Tumor, 0.4 mg/kg", "value": "47.1 ± 17.0", "unit": "mm3"}
    ]}
  ]
}
